Laboratory results as given in patent US20250345329A1, “HETEROARYL DERIVATIVE COMPOUND AND USES THEREOF” (VORONOI, INC., priority 2022, published 2025).

What was measured:
[1] = target: T1, human EGFR (d746-750/T790M/C797S) (Homo sapiens, UniProt P00533, C797S/DEL746-750/T790M); assay: EGFR C797S enzyme inhibition activity (ADP-Glo kinase assay); assay type: biochemical; details: purified enzyme 3 ng, ATP 5 μM, 25° C., 1 hour, luminescence; read-out: EGFR DTC Enzyme IC50
T1 construct: human EGFR (d746-750/T790M/C797S) (668-end, SignalChem); purchased SignalChem
T1 sequence (P00533 with tags, fused parts or gaps DEL746-750/T790M/C797S): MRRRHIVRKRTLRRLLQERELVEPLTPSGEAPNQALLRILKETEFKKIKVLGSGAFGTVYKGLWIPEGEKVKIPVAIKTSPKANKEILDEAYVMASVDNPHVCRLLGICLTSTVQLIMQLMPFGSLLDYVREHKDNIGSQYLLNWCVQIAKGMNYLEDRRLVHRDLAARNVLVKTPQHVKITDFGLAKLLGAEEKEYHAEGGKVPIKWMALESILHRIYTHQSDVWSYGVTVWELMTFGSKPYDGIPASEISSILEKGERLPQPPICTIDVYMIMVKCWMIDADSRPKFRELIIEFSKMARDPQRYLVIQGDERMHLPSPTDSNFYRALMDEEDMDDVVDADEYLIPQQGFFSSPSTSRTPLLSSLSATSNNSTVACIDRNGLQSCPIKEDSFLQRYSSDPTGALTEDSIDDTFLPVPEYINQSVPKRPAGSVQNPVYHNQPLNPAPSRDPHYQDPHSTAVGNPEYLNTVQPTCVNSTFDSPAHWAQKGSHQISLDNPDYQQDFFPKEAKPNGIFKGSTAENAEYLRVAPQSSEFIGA
Experimental: <Experimental Example 1> Evaluation of EGFR C797S Enzyme Inhibition Activity
The compounds according to the present invention were reacted together with purified human EGFR (d746-750/T790M/C797S) (668-end, SignalChem) enzyme and a specific substrate and evaluated for enzyme inhibitory activity as described below. The reaction buffer consisted of 40 mM Tris-HCl pH 7.4, 20 mM MgCl2, 0.5 mg/ml BSA, and 50 μM DTT, and all reactions of the test substances were performed in reaction buffers. The compounds were serially diluted in 12 steps from a 10 mM DMSO stock, and the enzyme activity was measured at the final compound concentrations of 10, 3, 1, 0.3, 0.1, 0.03, 0.01, 0.003, 0.001, 0.0003, 0.0001, and 0 μM. In the assay, human EGFR (d746-750/T790M/C797S) (3 ng) enzyme was reacted with purified ATP (5 μM) and enzyme substrate (0.2 μg) at 25° C. for 1 hour, and the enzyme activity was determined using the in vitro ADP-Glo™ kinase assay (Promega). The enzyme activity inhibition was measured via luminescence by reacting the enzyme activity reaction solution, ADP-Glo reaction solution, and enzyme activity detection solution in a 2:2:1 ratio. Based on the luminescence of the enzyme activity of the solvent control group that was not treated with the compound, the degree of the enzyme activity inhibition depending on the treatment concentration of each compound was calculated, wherein the concentration of each compound that inhibited the enzyme activity by 50% was determined as the IC50 (nM) value, which was obtained using GraphPad Prism 8.4.3 (GraphPad software Inc., San Diego).

[2] = tested on: Ba/F3 expressing EGFR Del19/T790M/C797S mutations; assay: Inhibitory activity on proliferation of Ba/F3 cell overexpressing EGFR C797S (Cell Titer-Glo); assay type: cell-based; details: Mus musculus, BaF3; 72 hours treatment, cell growth rate vs control; read-out: Ba/F3 (EGFR DTC) GI50
How it was run: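 Ba/F3 cells with EGFR Del19/T790M/C797S in RPMI-1640 + 10% FBS were seeded (3000/well) 24 h before 72 h compound exposure at 37 °C. Compounds were tested in a 12-point 3-fold series, final […]–5 μM. CellTiter-Glo luminescence gave growth % versus control, from which GI50 was derived.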

| IC50 [1] [nM] | GI50 [2] [nM] | Structure (SMILES) |
| --- | --- | --- |
| < 50 | 500 to 5000 | CC(C)Nc1cc(Nc2ccnc(-c3cnn(S(=O)(=O)C4CC4)c3)n2)ncc1C(=O)NCCS(C)(=O)=O [Example 35, 6-((2-(1-(cyclopropylsulfonyl)-1H-pyrazol-4-yl)pyrimidin-4-yl)amino)-4-(isopropylamino)-N-(2-(methylsulfonyl)ethyl) nicotinamide] |
| < 50 | 500 to 5000 | CC(C)Nc1cc(Nc2ccnc(-c3cnn(S(=O)(=O)C4CC4)c3)n2)ncc1C(=O)NC1CCS(=O)(=O)C1 (centres unmarked) [Example 36, 6-((2-(1-(cyclopropylsulfonyl)-1H-pyrazol-4-yl)pyrimidin-4-yl)amino)-N-(1,1-dioxydotetrahydrothi-ophen-3-yl)-4-(isopropylamino)nico-tinamide] |
| < 50 | 500 to 5000 | CC(C)Nc1cc(Nc2ccnc(-c3cnn(S(=O)(=O)C4CC4)c3)n2)ncc1C(=O)Nc1cccc(N2CCN(C)CC2)c1 [Example 39, 6-((2-(1-(cyclopropylsulfonyl)-1H-pyrazol-4-yl)pyrimidin-4-yl)amino)-4-(isopropylamino)-N-(3-(4-methylpiperazin-1-yl)phenyl)nicotinamide] |
| 50 to 500 | 500 to 5000 | CC(C)Nc1cc(Nc2ccnc(-c3cnn(S(=O)(=O)C4CC4)c3)n2)ncc1C(=O)Nc1cc(N2CCN(C)CC2)cc(C(C)(C)C#N)c1 [Example 40, N-(3-(2-cyanopropan-2-yl)-5-(4-methylpiperazin-1-yl)phenyl)-6-((2-(1-(cyclopropylsulfonyl)-1H-pyrazol-4-yl)pyrimidin-4-yl)amino)-4-(isopropylamino)nico-tinamide] |
| 50 to 500 | 500 to 5000 | CC(C)Nc1cc(Nc2ccnc(-c3cnn(S(=O)(=O)C4CC4)c3)n2)ncc1C(=O)NC1CN(C(=O)OC(C)(C)C)C1 [Example 46, tert-butyl 3-(6-((2-(1-(cyclopropylsulfonyl)-1H-pyrazol-4-yl)pyrimidin-4-yl)amino)-4-(isopropylamino)nico-tinamido)azetidine-1-carboxylate] |
| 50 to 500 | 500 to 5000 | CC(C)Nc1cc(Nc2ccnc(-c3cnn(S(=O)(=O)C4CC4)c3)n2)ncc1C(=O)NC1CCN(C(=O)OC(C)(C)C)C1 (centres unmarked) [Example 47, tert-butyl 3-(6-((2-(1-(cyclopropylsulfonyl)-1H-pyrazol-4-yl)pyrimidin-4-yl)amino)-4-(isopropylamino)nico-tinamido)pyrrolidine-1-carboxylate] |
| < 50 | < 500 | CC(C)Nc1cc(Nc2ccnc(-c3cnn(S(=O)(=O)C4CC4)c3)n2)ncc1C(=O)NC1CN(S(C)(=O)=O)C1 [Example 48, 6-((2-(1-(cyclopropylsulfonyl)-1H-pyrazol-4-yl)pyrimidin-4-yl)amino)-4-(isopropylamino)-N-(1-(methylsulfonyl)azeti-din-3-yl)nicotinamide] |
| < 50 | 500 to 5000 | CC(C)Nc1cc(Nc2ccnc(-c3cnn(S(=O)(=O)C4CC4)c3)n2)ncc1C(=O)NC1CCN(S(C)(=O)=O)C1 (centres unmarked) [Example 49, 6-((2-(1-(cyclopropylsulfonyl)-1H-pyrazol-4-yl)pyrimidin-4-yl)amino)-4-(isopropylamino)-N-(1-(methylsulfonyl)pyrro-lidin-3-yl)nicotinamide] |
| < 50 | 500 to 5000 | COC(=O)CCNC(=O)c1cnc(Nc2ccnc(-c3cnn(S(=O)(=O)C4CC4)c3)n2)cc1NC(C)C [Example 50, methyl 3-(6-((2-(1-(cyclopropylsulfonyl)-1H-pyrazol-4-yl)pyrimidin-4-yl)amino)-4-(isopropylamino)nico-tinamido)propanoate] |
| < 50 | 500 to 5000 | CC(C)Nc1cc(Nc2ccnc(-c3cnn(S(=O)(=O)C4CC4)c3)n2)ncc1C(=O)NCC1CCN(C)CC1 [Example 51, 6-((2-(1-(cyclopropylsulfonyl)-1H-pyrazol-4-yl)pyrimidin-4-yl)amino)-4-(isopropylamino)-N-((1-methylpiperidin-4-yl)methyl)nicotinamide] |
| < 50 | 500 to 5000 | CC(C)Nc1cc(Nc2ccnc(-c3cnn(S(=O)(=O)C4CC4)c3)n2)ncc1C(=O)NC(CCN(C)C)c1ccccc1 (centres unmarked) [Example 53, 6-((2-(1-(cyclopropylsulfonyl)-1H-pyrazol-4-yl)pyrimidin-4-yl)amino)-N-(3-(dimethylamino)-1-phenylpropyl)-4-(isopropylamino)nico-tinamide] |
| 50 to 500 | 500 to 5000 | CC(C)Nc1cc(Nc2ccnc(-c3cnn(S(=O)(=O)C4CC4)c3)n2)ncc1C(=O)NCc1ccc(C#N)cc1 [Example 55, N-(4-cyanobenzyl)-6-((2-(1-(cyclopropylsulfonyl)-1H-pyrazol-4-yl)pyrimidin-4-yl)amino)-4-(isopropylamino)nico-tinamide] |
| 50 to 500 | 500 to 5000 | CC(C)Nc1cc(Nc2ccnc(-c3cnn(S(=O)(=O)C4CC4)c3)n2)ncc1C(=O)NCC1CCCC1 [Example 56, N-(cyclopentylmethyl)-6-((2-(1-(cyclopropylsulfonyl)-1H-pyrazol-4-yl)pyrimidin-4-yl)amino)-4-(isopropylamino)-nicotinamide] |
| < 50 | 500 to 5000 | CC(C)Nc1cc(Nc2ccnc(-c3cnn(S(=O)(=O)C4CC4)c3)n2)ncc1C(=O)NCCCO [Example 57, 6-((2-(1-(cyclopropylsulfonyl)-1H-pyrazol-4-yl)pyrimidin-4-yl)amino)-N-(3-hydroxypropyl)-4-(isopropylamino)nico-tinamide] |
| 50 to 500 | 500 to 5000 | CC(C)Nc1cc(Nc2ccnc(-c3cnn(S(=O)(=O)C4CC4)c3)n2)ncc1C(=O)NCCCN(C)C(=O)OC(C)(C)C [Example 58, tert-butyl (3-(6-((2-(1-(cyclopropylsulfonyl)-1H-pyrazol-4-yl)pyrimidin-4-yl)amino)-4-(isopropylamino)nico-tinamido)propyl)(meth-yl)carbamate] |
| 50 to 500 | 500 to 5000 | CC(C)Nc1cc(Nc2ccnc(-c3cnn(S(=O)(=O)C4CC4)c3)n2)ncc1C(=O)NCc1ccc(F)cc1 [Example 61, 6-((2-(1-(cyclopropylsulfonyl)-1H-pyrazol-4-yl)pyrimidin-4-yl)amino)-N-(4-fluorobenzyl)-4-(isopropylamino)nico-tinamide] |
| < 50 | < 500 | CC(C)Nc1cc(Nc2ccnc(-c3cnn(S(=O)(=O)C4CC4)c3)n2)ncc1C(=O)NCC1CCCO1 (centres unmarked) [Example 62, 6-((2-(1-(cyclopropylsulfonyl)-1H-pyrazol-4-yl)pyrimidin-4-yl)amino)-4-(isopropylamino)-N-((tetrahydrofuran-2-yl)methyl)nicotin-amide] |
| 50 to 500 | 500 to 5000 | CC(C)Nc1cc(Nc2ccnc(-c3cnn(S(=O)(=O)C4CC4)c3)n2)ncc1C(=O)NCCCS(C)(=O)=O [Example 64, 6-((2-(1-(cyclopropylsulfonyl)-1H-pyrazol-4-yl)pyrimidin-4-yl)amino)-4-(isopropylamino)-N-(3-(methyl-sulfonyl)propyl) nicotinamide] |
| < 50 | 500 to 5000 | CC(C)Nc1cc(Nc2ccnc(-c3cnn(S(=O)(=O)C4CC4)c3)n2)ncc1C(=O)N1CC[C@H](CN2CCN(C)CC2)C1 [Example 65, (R)-(6-((2-(1-(cyclopropylsulfonyl)-1H-pyrazol-4-yl)pyrimidin-4-yl)amino)-4-(isopropylamino)pyri-din-3-)(3-((4-methylpiperazin-1-yl)methyl)pyrrolidin-1-yl)methanone] |
| < 50 | 500 to 5000 | CC(C)Nc1cc(Nc2ccnc(-c3cnn(S(=O)(=O)C4CC4)c3)n2)ncc1C(=O)N1CC2(C1)CN(S(C)(=O)=O)C2 [Example 66, (6-((2-(1-(cyclopropylsulfonyl)-1H-pyrazol-4-yl)pyrimidin-4-yl)amino)-4-(isopropylamino)pyri-din-3-yl)(6-(methylsulfonyl)-2,6-diazaspiro[3.3]heptan-2-yl)methanone] |
| < 50 | 500 to 5000 | CC(C)Nc1cc(Nc2ccnc(-c3cnn(S(=O)(=O)C4CC4)c3)n2)ncc1C(=O)NCCN1CCCC1 [Example 68, 6-((2-(1-(cyclopropylsulfonyl)-1H-pyrazol-4-yl)pyrimidin-4-yl)amino)-4-(isopropylamino)-N-(2-(pyrrolidin-1-yl)ethyl)nicotinamide] |
| < 50 | 500 to 5000 | CC(C)Nc1cc(Nc2ccnc(-c3cnn(S(=O)(=O)C4CC4)c3)n2)ncc1C(=O)NC(CN(C)C)c1ccccc1 (centres unmarked) [Example 70, 6-((2-(1-(cyclopropylsulfonyl)-1H-pyrazol-4-yl)pyrimidin-4-yl)amino)-N-(2-(dimethylamino)-1-phenylethyl)-4-(isopropylamino)nico-tinamide] |
